The values that follow come from patent publication US8058431B2, “Fluorescent double stranded DNA binding dyes” (Roche Diagnostics Operations, Inc., priority 2006, dated 2011).

For one data set, the system named is genomic DNA. Put plainly: Light stability: fluorescence of a mixture of dye and genomic DNA during continuous light exposure. In kind it is physicochemical. Particulars: for fluorescence during continuous light exposure: dye + genomic DNA. On the procedure:
The light stability of R27, which is representative for the nine described dyes, was compared to established dyes already used for such applications. The fluorescence of a mixture of the respective dye and genomic DNA was measured during continuous light exposure.

Data set [1] can be described thus: Bleaching of dye solution during a typical PCR protocol on a real-time PCR instrument. In kind it is physicochemical. The conditions noted are these: excitation for fluorescence measurement and repeated temperature changes between 55 and 95° C., LIGHTCYCLER 480.

Molecules are shown by their SMILES.

Turning to `CCCN(CCCN(C)C)c1cc(C=C2Sc3ccccc3N2C)c2ccccc2[n+]1-c1ccccc1` [SYBR Green I, [2-[N-(-3-dimethylaminopropyl)-N-propylamino]-4-[2,3-dihydro-3-methyl-(benzo-1,3-thiazol-2-yl)-methylidene]-1-phenyl-quinolinium]+, reference compound], the “fluorescence during continuous light exposure” value in the data set on genomic DNA (light exposure 0 min) is on record as 100%; in the data set on genomic DNA (light exposure 10 min), 87%; with genomic DNA (light exposure 30 min) it was 77%; in the data set with genomic DNA (light exposure 60 min), 70%; with genomic DNA (light exposure 180 min), 40%; in the data set with genomic DNA (light exposure 300 min), 24%.
Turning to `COc1cc2c(cc1OC)N(C)C(CCCC[N+](C)(C)C)=N/C2=C\c1sc2ccccc2[n+]1C.[I-].[I-]` [R 27], the “bleaching of the dye” value in data set [1] is given as “no recognizable bleaching”. Besides, the “fluorescence during continuous light exposure” value in the data set on genomic DNA (light exposure 0 min) was determined as 100%; in the data set with genomic DNA (light exposure 10 min), 99%; with genomic DNA (light exposure 30 min), 98%; with genomic DNA (light exposure 60 min), 99%; in the data set with genomic DNA (light exposure 180 min), 97%; with genomic DNA (light exposure 300 min), 96%. Also, the “light stability compared to established dyes” value in the data set with genomic DNA (versus SYBR Green I and LC Green Plus) is “distinctly higher”.
